These results are taken from publication PMC9628899 (Antiviral Research, 2003).

Read-outs that look alike come from different tables or passages of the source.

Data set [1] concerns vaccinia virus (VV). The note with it: read-out: EC50 Vaccinia; Table 4; ref Kern et al. (2002); cited from earlier work.
The test system of a further data set is Monkeypox. The conditions noted are these: read-out: EC50 Monkeypox; cited from earlier work.
For data set [2], the system named is cowpox virus (CV). The note with it: read-out: EC50 Cowpox; cited from earlier work.
Data set [3] has as its system vaccinia, cowpox, monkeypox, and variola viruses. Format: cell-based.
Another data set has as its system Variola. The conditions noted are these: read-out: EC50 Variola; cited from earlier work.
The conditions of data set [4]: ref Barditch-Crovo et al., 1997; cited from earlier work.
Data set [5] relates to cowpox virus (CV). The experiment in a line: microbe, parasite or virus in culture. It is filed as cell-based. The conditions noted are these: Cowpox virus, HFF.
The subject of data set [6] is vaccinia virus (VV). The experiment in a line: microbe, parasite or virus in culture. The conditions noted are these: Orthopoxvirus vaccinia, HFF. It is filed as cell-based.
The nature of a further data set: in vitro. The conditions noted are these: human.
The next data set has as its system vaccinia virus. It is filed as in vivo, mice.
Data set [7] has as its system cowpox virus. Further details: species or system mice. The conditions noted are these: mouse, in vivo.
The subject of data set [8] is cowpox virus. The conditions noted are these: mouse, in vivo, po; cited from earlier work.

Consider `CCCCCCCCCCCCCCCCOCCCOP1(=O)COC(Cn2ccc(N)nc2=O)CO1` (stereo not drawn) [HDP-cCDV, 3-hexadecyloxy-l-propanol cyclic CDV], for which the EC50 was 3.8 ± 1.5 µM with vaccinia virus (VV) [1], 1.8 µM in the data set with Monkeypox, 2.1 ± 1.9 µM in the data set with cowpox virus (CV) [2] and 0.9 µM in the data set with Variola. Moreover, the “active at levels -fold less than the parent molecules” value in data set [3] is on record as 50- to 200 fold.
As to `CC(C)(C)C(=O)OCOP(=O)(COCCn1cnc2c(N)ncnc21)OCOC(=O)C(C)(C)C` [Adefovir dipivoxil, bis(pivaloyloxymethyl)PMEA], the oral bioavailability entry in data set [4] is on record as “good oral bioavailability”. The EC50 with cowpox virus (CV) [5] (read-out: Cowpox virus EC50) is 13 ± 8.8 µM; with cowpox virus (CV) [5] (read-out: EC50 CV), 13 µM; in the data set on vaccinia virus (VV) [6] (read-out: EC50 VV), 5.1 µM; in the data set with vaccinia virus (VV) [6] (read-out: Vaccinia virus EC50) it was 5.1 ± 0.7 µM. The same compound showed a CC50 in “in vitro” of 117 ± 27 µM.
For the compound `Nc1ncnc2c1ncn2[C@@H]1O[C@H](CO)[C@@H](O)[C@@H]1O` [Vidarabine], the “activity in murine model of vaccinia virus infection” value in the data set with vaccinia virus (data not presented) was “not active”. Moreover, the “activity in murine model of cowpox virus infection” value in the data set with cowpox virus [7] was “not active”.
Consider `Nc1ccn(C[C@@H](CO)OCP(=O)(O)O)c(=O)n1` [Cidofovir, (S)-1(3-hydroxy-2-phosphonylmethoxypropyl) cytosine], for which the EC50 in the data set with vaccinia virus (VV) [1] is 46.2 ± 11.9 µM; with Monkeypox, 4.6 µM; in the data set with cowpox virus (CV) [5] (read-out: Cowpox virus EC50) it was 43 ± 2.5 µM; in the data set with cowpox virus (CV) [5] (read-out: EC50 CV), 43 µM; in the data set with cowpox virus (CV) [2] it was 44.7 ± 6.3 µM; with vaccinia virus (VV) [6] (read-out: EC50 VV) it was 33 µM. Further, the EC50 in the data set on vaccinia virus (VV) [6] (read-out: Vaccinia virus EC50) was 33 ± 9.1 µM; with Variola, 27.3 µM. The CC50 in the data set “in vitro” was determined as 278 ± 9.2 µM.
Regarding `Nc1ccn(C[C@H]2COP(=O)(O)CO2)c(=O)n1` [Cyclic HPMPC (cHPMPC), Cyclic HPMPC], the EC50 in the data set on vaccinia virus (VV) [1] is 50.6 ± 13.1 µM; in the data set with Monkeypox it was 63.6 µM; with cowpox virus (CV) [5] (read-out: Cowpox virus EC50), 48 ± 8 µM; in the data set on cowpox virus (CV) [2] it was 48.3 ± 8 µM; in the data set on vaccinia virus (VV) [6] (read-out: Vaccinia virus EC50), 38 ± 11 µM; in the data set on Variola, 45.8 µM. The compound further displayed a CC50 in “in vitro” of over 302 µM.
As to `CCCCCCCCCCCCCCCCOCCCOP(=O)(O)CO[C@H](CO)Cn1ccc(N)nc1=O` [HDP-CDV, 3-hexadecyloxy-l-propanol CDV], the half-maximal effective concentration (EC50) with vaccinia virus (VV) [1] was 0.8 ± 0.4 µM; in the data set with Monkeypox it was 0.07 µM; with cowpox virus (CV) [2], 0.6 ± 0.3 µM; in the data set with Variola, 0.1 µM. Besides, in the data set on vaccinia virus (given orally, Kern, unpublished results), the “activity in vaccinia virus infection of mice” value was “active orally”. For the same compound, the “active at levels -fold less than the parent molecules” value in data set [3] was 50- to 200 fold. For the same compound, the “activity in cowpox virus-infected mice” value in the data set with cowpox virus [8] is on record as “active”. In addition, the “activity in cowpox virus infection of mice” value with cowpox virus [7] (po) is “active orally”.
